Assay results reported in the NIST ThermoML archive (doi:10.1021/je1012235).
± gives the expanded uncertainty stated by the source.

Details: 101.33 kPa, Liquid; for mass density: Vibrating tube method

CC/C=C\C/C=C\C/C=C\CCCCCCCC(=O)OCC [ethyl 9,12,15-octadecatrienoate]
Details	mass density [kg/m3]	viscosity [mPa·s]
278.15 K	904.6 ± 1	6.282 ± 0.082
283.15 K	900.8 ± 1	5.538 ± 0.073
288.15 K	897 ± 1	4.921 ± 0.065
293.15 K	893.3 ± 1	4.401 ± 0.059
298.15 K	889.5 ± 1	3.961 ± 0.053
303.15 K	885.8 ± 1	3.583 ± 0.049
308.15 K	882 ± 1	3.258 ± 0.044
313.15 K	878.3 ± 1	2.975 ± 0.041
318.15 K	874.6 ± 1	2.728 ± 0.038
323.15 K	870.9 ± 1	2.511 ± 0.035
328.15 K	867.2 ± 1	2.32 ± 0.033
333.15 K	863.5 ± 1	2.151 ± 0.031
338.15 K	859.9 ± 1	2 ± 0.029
343.15 K	856.2 ± 1	1.866 ± 0.027
348.15 K	852.5 ± 1	1.745 ± 0.026
353.15 K	848.9 ± 1	1.636 ± 0.025
358.15 K	845.3 ± 1	1.538 ± 0.023
363.15 K	841.6 ± 1	1.449 ± 0.022
368.15 K	838 ± 1	1.368 ± 0.021
373.15 K	834.5 ± 1	1.295 ± 0.02

CCCCCCCCCCCCCCCCCCCC(=O)OCC [ethyl eicosanoate]
Details	mass density [kg/m3]	viscosity [mPa·s]
318.15 K	841.2 ± 1.2	5.657 ± 0.089
323.15 K	837.7 ± 1.2	4.973 ± 0.079
328.15 K	834.1 ± 1.2	4.507 ± 0.072
333.15 K	830.5 ± 1.2	4.058 ± 0.065
338.15 K	827 ± 1.2	3.671 ± 0.059
343.15 K	823.5 ± 1.2	3.337 ± 0.054
348.15 K	820 ± 1.2	3.046 ± 0.049
353.15 K	816.6 ± 1.2	2.78 ± 0.045
358.15 K	813.2 ± 1.2	2.569 ± 0.042
363.15 K	809.7 ± 1.2	2.372 ± 0.039
368.15 K	806.1 ± 1.2	2.196 ± 0.037
373.15 K	802.4 ± 1.2	2.039 ± 0.034

CCCCC/C=C\C/C=C\CCCCCCCC(=O)OCC [ethyl linoleate]
Details	mass density [kg/m3]	viscosity [mPa·s]
278.15 K	893.8 ± 1	8.188 ± 0.11
283.15 K	890 ± 1	7.084 ± 0.092
288.15 K	886.3 ± 1	6.165 ± 0.081
293.15 K	882.6 ± 1	5.423 ± 0.072
298.15 K	878.8 ± 1	4.807 ± 0.064
303.15 K	875.2 ± 1	4.307 ± 0.058
308.15 K	871.5 ± 1	3.854 ± 0.052
313.15 K	867.8 ± 1	3.406 ± 0.046
318.15 K	864.2 ± 1	3.161 ± 0.043
323.15 K	860.6 ± 1	2.829 ± 0.039
328.15 K	856.9 ± 1	2.641 ± 0.037
333.15 K	853.3 ± 1	2.429 ± 0.034
338.15 K	849.7 ± 1	2.241 ± 0.032
343.15 K	846 ± 1	2.075 ± 0.03
348.15 K	842.4 ± 1	1.927 ± 0.028
353.15 K	838.8 ± 1	1.773 ± 0.026
358.15 K	835.2 ± 1	1.676 ± 0.025
363.15 K	831.6 ± 1	1.569 ± 0.024

CCCCCC/C=C\CCCCCCCC(=O)OC [methyl (Z)-9-hexadecenoate]
Details	mass density [kg/m3]	viscosity [mPa·s]
278.15 K	880.4 ± 1	6.169 ± 0.081
283.15 K	876.6 ± 1	5.367 ± 0.071
288.15 K	872.8 ± 1	4.662 ± 0.062
293.15 K	869 ± 1	4.107 ± 0.055
298.15 K	865.2 ± 1	3.647 ± 0.049
303.15 K	861.4 ± 1	3.289 ± 0.045
308.15 K	857.6 ± 1	2.943 ± 0.041
313.15 K	853.8 ± 1	2.616 ± 0.037
318.15 K	850 ± 1	2.422 ± 0.034
323.15 K	846.3 ± 1	2.175 ± 0.031
328.15 K	842.5 ± 1	2.03 ± 0.029
333.15 K	838.7 ± 1	1.87 ± 0.027
338.15 K	834.9 ± 1	1.728 ± 0.026
343.15 K	831.1 ± 1	1.595 ± 0.024
348.15 K	827.3 ± 1	1.482 ± 0.023
353.15 K	823.5 ± 1	1.366 ± 0.021
358.15 K	819.8 ± 1	1.29 ± 0.02
363.15 K	816 ± 1	1.207 ± 0.019
